Source: US9480675B2, “Method for increasing muscle growth by blocking sirtuin activity” (THE REGENTS OF THE UNIVERSITY OF CALIFORNIA, priority 2013, dated 2016)

Tested on: wild type mice
Experiment: 14 days of overload (synergist ablation of GTN and SOL) with daily injection of SIRT1 inhibitor; plantaris muscle hypertrophy
Format: in vivo
From the text: The plantaris (PLN) muscle in test subjects was overloaded by removal of the gastrocnemius (GTN) and soleus (SOL) muscles, termed synergist ablation. Briefly, test animals were anaesthetized and the area above the incision shaved and sterilized. The SOL and GTN were isolated and severed at the Achilles tendon. The complete SOL and the distal two thirds of the GTN were removed leaving the PLN muscle and their blood and nerve supply intact. The overlying skin was sutured with 6-0 vicryl and the animal was then given the analgesic and moved to a temperature-controlled environment to recover. […] Animals were monitored on a daily basis for signs of pain or post-operative infection. […] On the day of collection, animals were anaesthetized and overloaded and contralateral control muscles were rapidly removed, rinsed in PBS, all connective/scar tissue was removed using a dissection microscope, then the muscles were snap frozen in liquid nitrogen, and stored at −80° C. until processed.
To determine whether the effect of SIRT1 on overload-induced muscle hypertrophy required genetic ablation or whether pharmacological ablation of SIRT1 activity could mimic the effect of the knockout, GTN and SOL muscles of wild type mice were removed and half of the mice received daily injections of the SIRT1 inhibitor Splitomycin. There were 14 days of overload performed in wild type mice concurrent with daily injection of either saline (CON) or Splitomycin (Split).

With `O=C1CCc2c(ccc3ccccc23)O1` [Splitomycin] the “effectiveness of therapeutic dose (in words)” value (25 mg/kg body weight per day) was “effective”, the “effect on basal muscle mass” value (14 days of daily injection) was “without affecting basal muscle mass” and the “effect on muscle hypertrophy (in words)” value (wild type mice, 14 days of overload, daily injection, saline (CON) vs Splitomycin (Split), FIG. 6) was “increases muscle hypertrophy”. For the same molecule, the “more muscle hypertrophy than vehicle (saline) injection” value (wild type mice, 14 days of overload, daily injection, versus saline/vehicle (FIG. 6)) was 65%.
